Data set [1] relates to cytochrome c oxidase in B. subtilis. As to the kind of experiment: Chronoamperometry of drop-cast bacteria, turnover number per single bacterium. The format is cell-based, Bacillus subtilis. Conditions: B. subtilis grown on agar; current at 8 s; 37° C. The procedure: (§1) For the localized electrochemical recognition of cytochrome c oxidases in bacteria, target cultures were immobilized onto a gold macroelectrode by drop-casting and immersed into a solution of PBS, containing 1.7 mM TMPD^+• (FIG. 3). The radical cation can be reduced electrochemically at the electrode to TMPD, providing the substrate for the target bacteria to oxidise and convert TMPD back to TMPD^+•. The chemical oxidation of TMPD to TMPD^+• can then be observed electrochemically.
A 3 mm (diameter) gold macroelectrode (Alvatek Ltd, UK) was used as the working electrode for all bioelectrochemical measurements. After polishing, sonication of the macroelectrode was applied for 2 minutes to assure removal of alumina powder from the electrode surface. Bacteria were immobilized onto the electrode by drop casting. […] Evaporation was monitored by eye and N2 flow was stopped the moment all liquid was evaporated. […]
As during drop-casting both living and dead bacteria in a solution are deposited at an electrode, flow cytometry measurements were performed to estimate the percentage of living cells in solution that contribute to the electrochemical signal (FIG. 7). […] Taking the electrochemical current during chronoamperometry (measurement point at 8 s), a turnover number was determined. […] As such, a turnover number per single bacterium (Tsb) could be calculated using the equation: […]

Data set [2] relates to cytochrome c oxidase in E. coli. Described as above. It is filed as cell-based, Escherichia coli. The procedure: as §1
A 3 mm (diameter) gold macroelectrode (Alvatek Ltd, UK) was used as the working electrode for all bioelectrochemical measurements. After polishing, sonication of the macroelectrode was applied for 2 minutes to assure removal of alumina powder from the electrode surface. Bacteria were immobilized onto the electrode by drop casting. For this purpose, the macroelectrode was placed in an electrode holder inside a 50 mL falcon tube, keeping it in an upright position. Bacteria suspension was diluted so that all depositions consisted of 3 μL bacteria suspension representing monolayer concentrations of 0.5 to 30. The falcon tube was closed and the bacteria suspension dried under N2 flow. Evaporation was monitored by eye and N2 flow was stopped the moment all liquid was evaporated. The electrode was removed from the holder and was placed in the electrochemical set up. The electrochemical cell remained thermostated to 37° C. throughout the experiments.
Chronoamperometry was carried out immediately after drop-casting of bacteria to minimize cell death at the electrode. […]
E. coli bacteria, cultured under aerobic conditions, were then investigated. […] The enhanced electrochemical signal in the presence of E. coli can also be recorded during cyclic voltammetry. However, due to the small current range detected, scan rates as low as 2 mV s^−1 need to be applied in order to visualize the oxidation process of TMPD by the bacteria. […] Consequently, chronoamperometry measurements were chosen for quantitative analyses. […]

The nature of data set [3]: Cyclic voltammetry of TMPD-BF4 at gold macroelectrode with DigiSim simulation. It is filed as physicochemical. The procedure:
[formula] in which C is the concentration, Iss represents the steady state current, F is the Faraday constant, D is the diffusion coefficient and a is the radius of the electroactive surface of the microelectrode), and its electrochemical behaviour was analysed using cyclic voltammetry. […] Various scan rates, ranging from 30 to 300 mV s^−1, were applied. As the singly oxidized form of TMPD, the TMPD^+• radical cation can be reduced to TMPD and oxidized to TMPD^2+: TMPD^+•+e^− ? TMPD (1) TMPD^2++e^− ? TMPD^+• (2)
in which only the first redox reaction is fully reversible,[25] and will be the focus of this method. Using the commercial simulation software DigiSim® (Basi), theoretical curves were fitted to the experimental data.[26-30] […] A diffusion coefficient DTMPD-BF4 of 1.0×10^−5 cm^2 s^−1 was determined for a solution temperature of 37° C. and fixed in the DigiSim® program. Detailed information about the calculation of DTMPD-BF4 can be found below. Following the approach in the literature,[31] the redox reaction (1) was simulated to determine the Butler-Volmer kinetic parameters of TMPD^+• reduction at the macroelectrode and a fitting of the concentration-independent heterogeneous standard electrochemical rate constant (ks), as well as the standard electrode potential E0, was conducted. To account for minor solution changes related to the oxidation of TMPD by oxygen, the initial concentration ratio of TMPD to TMPD^+• was slightly adjusted for each scan without changing the overall shape or position of the simulated curves. This allowed an offset correction for the presented curves and a capacitive contribution of between 10 to 30 μF was attributed. From the simulations, the standard electrochemical rate constant ks was determined to be equal to or greater than 0.025 cm s^−1, and a standard electrode potential E0 of 0.013 (±0.001) V vs. SCE was determined. […]
A diffusion coefficient (DTMPD-BF4) of 1×10^−5 cm^2 s^−1 was found following the reversible Randles-Ševčík method. […] The diffusion coefficient was determined using the equation

Where only a bound is given, the exact number is not on record here.

For the compound `CN(C)c1ccc(N(C)C)cc1` [TMPD, N,N,N′,N′-tetramethyl-para-phenylene diamine], the “turnover number per single bacterium (Tsb)” value in data set [1] was 9.8 (±0.3)×10^8 L mol^−1 s^−1; in data set [2] (E. coli grown aerobically (exponential phase)), 3.8 (±0.06)×10^8 L mol^−1 s^−1; in data set [2] (E. coli grown in broth to the stationary phase), 1.8 (±0.3)×10^9 L mol^−1 s^−1; in data set [2] (E. coli grown to the exponential phase (aerobic), current at 8 s), 3.8 (±0.06)×10^8 L mold s^−1.
With “N,N,N′,N′-tetramethyl-para-phenylene diamine tetrafluoroborate [TMPD-BF4]”, the “diffusion coefficient DTMPD-BF4” value in data set [3] (2.1 mM TMPD-BF4 in PBS pH 7.4, 37° C., Randles-Ševčík, 3 mm gold electrode) was 1×10^−5 cm^2 s^−1. The “standard electrochemical rate constant ks” value in data set [3] (TMPD^+• reduction at gold macroelectrode, fitted by simulation) was at least 0.025 cm/s. Further, in data set [3] (TMPD^+•/TMPD couple, fitted by simulation), the “standard electrode potential E0” value is 0.013 (±0.001) V vs. SCE.

The values are drawn from patent publication US11834697B2, “Electrochemical recognition and quantification of cytochrome c oxidase expression in bacteria” (OXFORD UNIVERSITY INNOVATION LIMITED, priority 2017, dated 2023).
